Experimental data published in patent US20250360167A1 (Keryx Biopharmaceuticals, Inc., priority 2013, published 2025).

Assays:
Assay type in all cases: in vivo, human
serum phosphorus = test: Phase 3 trial in ESRD patients on dialysis (Example 1), 52-week Safety Assessment Period: serum phosphorus vs active control; settings: for Mean Serum Phosphorus / Mean Serum Phosphorus, % Change from Baseline / Mean Serum Phosphorus, Change from Baseline: Table B; for Serum Phosphorus, Mean / Serum Phosphorus, Median: Safety Assessment Period; for Serum Phosphorus, Mean / Serum Phosphorus, Median / Serum Phosphorus, LS Mean / Serum Phosphorus, Change from Baseline, Mean / Serum Phosphorus, Change from Baseline, Median / Serum Phosphorus, Treatment Differences, LS Mean (KRX-0502) − LS Mean (control): Table 13; for Serum Phosphorus, Change from Baseline, Mean / Serum Phosphorus, Change from Baseline, Median: Day 0 baseline
Description: This trial was a three-period, multicenter, safety and efficacy clinical trial.
Period 2 (Safety Assessment Period). […] Patients were followed on their randomized assignment for safety assessments over 52 weeks.
For patients randomized to the active-control group, the starting dose of phosphate binder was the last dose that was administered immediately prior to the start of the Washout Period (if the patient remained on the same phosphate binder) or at the discretion of the PI, guided by the package insert, if the patient changed binders. However, for patients whose previous dose of phosphate binder exceeded 12 pills/day, if randomized to the active-control group, their starting dose of active-control drug was at the discretion of the PI, but will not exceed 12 pills/day. Calcium acetate 667 mg capsules and sevelamer carbonate 800 mg tablets were used and were supplied by Keryx Biopharmaceuticals, Inc. (Keryx) for the duration of the trial.
Serum phosphorus and calcium were checked at Visit 5 (Week 1), and every two weeks during the first 12 weeks after Visit 4 (Randomization Visit), and monthly for the rest of the Safety Assessment Period. During the Efficacy Assessment Period, serum phosphorus and calcium were drawn weekly. These values guided study drug administration. While on study drug, the use of other phosphate binders was not permitted. […] The titration of calcium acetate and sevelamer carbonate throughout the 52-week Safety Assessment Period were according to the current package inserts for these agents and/or at the discretion of the site PI.
Serum phosphorus and calcium were performed at Screening (Visit 0); weekly during the Washout Period after Visit 1 (Week −2); at Visit 4 (Randomization Visit); at Visits 5 (Week 1), 6 (Week 2), 7 (Week 4), 8 (Week 6), 9 (Week 8), 10 (Week 10), 11 (Week 12), 12 (Week 16), 13 (Week 20), 14 (Week 24), 15 (Week 28), 16 (Week 32), 17 (Week 36), 18 (Week 40), 19 (Week 44), 20 (Week 48), and 21 (Week 52) of the 52-week Safety Assessment Period; and at Visits 22 (Week 53), 23 (Week 54), 24 (Week 55) and 25 (Week 56) of the Efficacy Assessment Period.
The efficacy analyses were based on Full Analysis (FA) population that consisted of all patients who took at least one dose of study medication and provided baseline and at least one post-baseline efficacy assessment. The safety analyses were based on safety population that was consistent of all patients who took at least one dose of study medication.
• 1. Change in serum phosphorus concentration at Weeks 12, 24, 36, 48, and 52 as compared to baseline (Visit 4). This variable will be analyzed using LOCF methodology. ANCOVA will be employed. The model will include treatment (fixed effect), and baseline (covariate).

hemoglobin = test: Phase 2 trial (Example 2): hemoglobin; settings: ITT group, n = 72
Excerpt: The key secondary endpoints of the study were the mean changes in ferritin, hemoglobin and FGF-23 from baseline to the end of the 12-week treatment period versus placebo in the ITT group.

[1] = Phase 2 trial (Example 2): safety and tolerability
Description: The safety population in the study included all randomized patients who took at least one dose of study drug.
Serious adverse events occurred in six KRX-0502 subjects (8%) versus ten placebo subjects (14%). Two deaths were recorded in the study, both from the placebo group.

[2] = Phase 3 trial (Example 1): cumulative IV iron intake to Week 52
Description: Laboratory measurements were conducted throughout the study to assess safety and efficacy. The dose and specific IV iron preparation administered (if necessary) were at the discretion of the PI. Oral iron therapy was not permitted. Calcium-containing drugs were not permitted if given within two hours of food ingestion (calcium-containing drugs were permitted two hours or more prior to or following food ingestion or at bedtime for the purpose of raising the serum calcium). No Vitamin C supplements were permitted. Patients were allowed to take daily water soluble vitamins that include a small amount of Vitamin C (e.g., Centrum, Nephrocaps, Renaphro), but those patients were instructed to take them two hours or more prior to or following food ingestion or at bedtime. IV iron therapy was not permitted if the ferritin level is >1000 micrograms/L or the TSAT is >30%. If it was deemed in the patient's best interest to receive IV iron outside these parameters, the Clinical Coordinating Center (CCC) was consulted, and when approved and documented, was not considered a protocol exception.
The cumulative IV iron intake from randomization to Week 52 will be compared between treatment groups. This variable will be similarly analyzed as the primary efficacy variable using ANCOVA method. The two-sided 95% confidence intervals of treatment differences for all above comparisons will be presented.

[3] = Method 1 to Handle Overlapping Doses, Table 19

In the case of “iron (+3), x (1, 2, 3-propanetricarboxylic acid, 2-hydroxy-), y (H2O) [KRX-0502]”, the “Mean Serum Phosphorus” value (serum phosphorus; Baseline, N = 277) is reported as 7.4 mg/dL, the “Phosphorus, Median” value (serum phosphorus; Baseline, Table 12) is reported as 7.20 mg/dL and the “Phosphorus, Mean” value (serum phosphorus; Baseline, Table 12, vs sevelamer carbonate as a single agent) is reported as 7.39 mg/dL. The “Serum Phosphorus, Mean” value (serum phosphorus; Day 0 Baseline) was 7.39, the “Serum Phosphorus, Median” value (serum phosphorus; Day 0 Baseline) was 7.20 and the “Phosphorus, Week 12 Change from Baseline, Mean” value (serum phosphorus; Table 12) was -2.01 mg/dL. For the same substance, the “Phosphorus, Week 12 Change from Baseline, Median” value (serum phosphorus; Table 12) was -2.00 mg/dL, the “Phosphorus, LS Mean” value (serum phosphorus; Week 12, ANCOVA, Day-0 baseline covariate, Table 12) was 5.38 mg/dL and the “Serum Phosphorus, LS Mean” value (serum phosphorus; Week 12, ANCOVA) was 5.39. The “Serum Phosphorus, Change from Baseline, Mean” value (serum phosphorus; Week 12) was −2.01, the “Serum Phosphorus, Change from Baseline, Median” value (serum phosphorus; Week 12) was −2.00 and the “Mean Serum Phosphorus” value (serum phosphorus; Week 12, LOCF) was 5.4 mg/dL. For the same substance, the “Serum Phosphorus, Mean” value (serum phosphorus; Week 12) was 5.38, the “Serum Phosphorus, Median” value (serum phosphorus; Week 12) was 5.10 and the “Phosphorus, Mean” value (serum phosphorus; Week 12, Table 12) was 5.38 mg/dL. The “Phosphorus, Median” value (serum phosphorus; Week 12, Table 12) was 5.10 mg/dL, the “Serum Phosphorus, Treatment Differences, LS Mean (KRX-0502) − LS Mean (control)” value (shortened to “Serum Phosphorus, Treatment Differences”) (serum phosphorus; Week 12) was 0.07 and the “Mean Serum Phosphorus, % Change from Baseline” value (shortened to “Mean Serum Phosphorus, % Change”) (serum phosphorus; Week 12) was −27%. The “Mean Serum Phosphorus, Change from Baseline” value (shortened to “Mean Serum Phosphorus, Change”) (serum phosphorus; Week 12) was -2.0 mg/dL, the “Phosphorus, Treatment Differences, LS Mean (KRX-0502) − LS Mean (Control)” value (serum phosphorus; Week 12, control = sevelamer carbonate as a single agent) was 0.16 mg/dL and the “Serum Phosphorus, LS Mean” value (serum phosphorus; Week 24, ANCOVA) was 5.26. For the same substance, the “Serum Phosphorus, Change from Baseline, Mean” value (serum phosphorus; Week 24) was −2.14, the “Serum Phosphorus, Change from Baseline, Median” value (serum phosphorus; Week 24) was −2.10 and the “Mean Serum Phosphorus” value (serum phosphorus; Week 24, LOCF) was 5.2 mg/dL. For the same substance, the “Serum Phosphorus, Mean” value (serum phosphorus; Week 24) was 5.24, the “Serum Phosphorus, Median” value (serum phosphorus; Week 24) was 5.10 and the “Serum Phosphorus, Treatment Differences” value (serum phosphorus; Week 24) was −0.21. For the same substance, the “Mean Serum Phosphorus, % Change” value (serum phosphorus; Week 24) was −30%, the “Mean Serum Phosphorus, Change” value (serum phosphorus; Week 24) was -2.2 mg/dL and the “Serum Phosphorus, LS Mean” value (serum phosphorus; Week 36, ANCOVA) was 5.24. The “Serum Phosphorus, Change from Baseline, Mean” value (serum phosphorus; Week 36) was −2.16, the “Serum Phosphorus, Change from Baseline, Median” value (serum phosphorus; Week 36) was −2.10 and the “Mean Serum Phosphorus” value (serum phosphorus; Week 36, LOCF) was 5.2 mg/dL. The “Serum Phosphorus, Mean” value (serum phosphorus; Week 36) was 5.22, the “Serum Phosphorus, Median” value (serum phosphorus; Week 36) was 5.10 and the “Serum Phosphorus, Treatment Differences” value (serum phosphorus; Week 36) was −0.05. The “Mean Serum Phosphorus, % Change” value (serum phosphorus; Week 36) was −30%, the “Mean Serum Phosphorus, Change” value (serum phosphorus; Week 36) was -2.2 mg/dL and the “Serum Phosphorus, LS Mean” value (serum phosphorus; Week 48, ANCOVA) was 5.33. For the same substance, the “Serum Phosphorus, Change from Baseline, Mean” value (serum phosphorus; Week 48) was −2.07, the “Serum Phosphorus, Change from Baseline, Median” value (serum phosphorus; Week 48) was −2.10 and the “Mean Serum Phosphorus” value (serum phosphorus; Week 48, LOCF) was 5.3 mg/dL. For the same substance, the “Serum Phosphorus, Mean” value (serum phosphorus; Week 48) was 5.32, the “Serum Phosphorus, Median” value (serum phosphorus; Week 48) was 5.20 and the “Serum Phosphorus, Treatment Differences” value (serum phosphorus; Week 48) was −0.12. The “Mean Serum Phosphorus, % Change” value (serum phosphorus; Week 48) was −28%, the “Mean Serum Phosphorus, Change” value (serum phosphorus; Week 48) was -2.1 mg/dL and the “Serum Phosphorus, LS Mean” value (serum phosphorus; Week 52, ANCOVA) was 5.33. For the same substance, the “Serum Phosphorus, Change from Baseline, Mean” value (serum phosphorus; Week 52) was −2.06, the “Serum Phosphorus, Change from Baseline, Median” value (serum phosphorus; Week 52) was −2.20 and the “Mean Serum Phosphorus” value (serum phosphorus; Week 52, LOCF) was 5.3 mg/dL. For the same substance, the “Serum Phosphorus, Mean” value (serum phosphorus; Week 52) was 5.32, the “Serum Phosphorus, Median” value (serum phosphorus; Week 52) was 5.20 and the “Serum Phosphorus, Treatment Differences” value (serum phosphorus; Week 52) was −0.01. The “Mean Serum Phosphorus, % Change” value (serum phosphorus; Week 52) was −28%, the “Mean Serum Phosphorus, Change” value (serum phosphorus; Week 52) was -2.1 mg/dL and the “Mean Hemoglobin, Baseline” value (hemoglobin; Baseline) was 10.5 g/dL. The “Mean Hemoglobin, End of Treatment (Week 12)” value (hemoglobin; Week 12, last observation carried forward) was 11.0 g/dL, the “differences in serum calcium levels and liver enzymes (ALT, AST)” value ([1]; KRX-0502 vs placebo) was “no clinically meaningful or statistically significant differences” and the “Serious adverse events, % of subjects” value ([1]; Phase 2 study) was 8%. The “Serious adverse events, number of subjects” value ([1]; Phase 2 study) was “six”, the “study discontinuations due to hypophosphatemia” value ([1]; Phase 2 study) was “no study discontinuations due to hypophosphatemia” and the safety and tolerability ([1]; Phase 2 study, safety population) was “safe and well-tolerated”. The discontinuation rates ([1]; including Treatment Failures) was 19%, the “Average Daily IV iron intake based on the Cumulative IV iron intake to week 52 (Visit 4-21), Mean” value [2, 3] was 2.96 and the “Average Daily IV iron intake based on the Cumulative IV iron intake to week 52 (Visit 4-21), Median” value [2, 3] was 1.86. For the same substance, the “mean reduction in average cumulative IV iron intake” value ([2]; administered over a period of 52 weeks, stated as embodiment) was 51.6%.
